{
  "source": "patent US20230382869A1",
  "about": "“Phenyl-3,4-dihydroisoquinolin-2(1h)-yl-ethan-1-one derivatives as dopamine d1receptor positive allosteric modulators” (Eli Lilly and Company, priority 2020, published 2023)",
  "target": "human D1 receptor (Homo sapiens (Human), UniProt P21728)",
  "sequence (P21728 whole entry)": "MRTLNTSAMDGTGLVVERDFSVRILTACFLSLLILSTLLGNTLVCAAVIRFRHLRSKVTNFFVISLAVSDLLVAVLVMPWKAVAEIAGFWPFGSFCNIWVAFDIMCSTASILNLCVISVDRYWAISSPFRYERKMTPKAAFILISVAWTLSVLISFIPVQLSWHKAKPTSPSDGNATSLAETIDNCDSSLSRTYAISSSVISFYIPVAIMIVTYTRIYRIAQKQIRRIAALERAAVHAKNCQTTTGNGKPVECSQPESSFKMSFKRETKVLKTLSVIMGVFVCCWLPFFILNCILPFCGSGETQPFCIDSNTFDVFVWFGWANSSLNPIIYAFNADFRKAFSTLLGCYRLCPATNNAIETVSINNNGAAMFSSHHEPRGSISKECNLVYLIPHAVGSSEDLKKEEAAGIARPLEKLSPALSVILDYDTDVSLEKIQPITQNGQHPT",
  "test": "Human D1 Receptor PAM Assay (cAMP HTRF, potentiator mode)",
  "assay_type": "cell-based",
  "conditions": "for EC50: HEK293 cells expressing human D1, with EC20 dopamine (12 nM final), cAMP, read-out: Abs EC50; for % Top (% Potentiation): fitted top, 0% = EC20 dopamine alone, 100% = 5 μM dopamine",
  "description": "The PAM activity of the compounds of the present invention may be measured essentially as described in Svensson et al., An Allosteric Potentiator of the Dopamine D1 Receptor Increases Locomotor Activity in Human D1 Knock-in Mices without Casusing Stereotypy or Tachyphylaxis. J. Pharmacol. Exp. Ther. (2017) 360:117-128.\nMore specifically, HEK293 cells that stably express the human D1 receptor (Accession number NM_000794) are generated by gene transduction using the pBABE-bleo retroviral vector and selected with Zeocin™ (InvivoGen). At approximately 80% confluency, the cells are harvested using TrypLE™ Express (Gibco), suspended in FBS plus 8% DMSO, and stored in liquid nitrogen. On the day of the assay, cells are thawed and resuspended in STIM buffer (Hanks Balanced Salt Solution supplemented with 0.1% BSA, 20 mM HEPES, 500 μM IBMX, and 100 μM ascorbic acid).\nTest compound is serially diluted (1:2) with DMSO into assay plates (ProxiPlate-384 Plus, PerkinElmer) using acoustic dispensing (Labcyte) to provide 20 concentrations for full response curves. Test compound (80 nL) is added to 5 μL STIM buffer containing 2000 cells, and 5 μL of a 2×concentration dopamine solution in STIM buffer that will generate an EC20 level response (24 nM in stock solution, or 12 nM final) and a final DMSO concentration in the well of 0.8%. Plates are incubated at room temperature for a total reaction time of 60 min.\ncAMP production is quantified using HTRF® detection (Cisbio) according to the manufacturer's instructions. Generally, lysis buffer containing anti-cAMP cryptate (5 μL) and D2-conjugate (from HTRF® kit)(5 μL) is added to the wells, plates are incubated for an additional 60-90 min, and the time-resolved fluorescence is detected using an EnVision™ plate reader (PerkinElmer). Fluorescence data is converted to cAMP concentrations using a cAMP standard curve and analyzing using a 4-parameter non-linear logistic equation (Genedata Screener, version 13.0.5-standard). For potentiator mode concentration-response curves, results are expressed as percent of the window between a response at EC20 concentration of dopamine alone (normalized to 0%) and the maximum response to dopamine (defined by response to 5 μM dopamine, final concentration, normalized as 100%). Absolute EC50 values are calculated based on the maximum and minimum responses of the control agonist (dopamine). The % Potentiation (% Top) is determined from the fitted top of the concentration response curve.",
  "data": [
    {"compound": "2-(2,6-Dichlorophenyl)-1-[(1S,3R)-5-[4,4-difluoro-3-hydroxy-3-methyl-butyl]-3-(hydroxymethyl)-1-methyl-3,4-dihydro-1H-isoquinolin-2-yl]ethenone [Example 6]", "values": [
      {"measurement": "EC50", "value": 12.7, "unit": "nM"},
      {"measurement": "% Top (% Potentiation)", "value": 97.0, "unit": "%"}
    ]},
    {"compound": "C[C@H]1c2cccc([C@@H]3C[C@@H]3C(C)(C)O)c2C[C@H](CO)N1C(=O)Cc1c(Cl)cccc1Cl", "note": "(relative stereo) [Example 3, 2-(2,6-Dichlorophenyl)-1-[(1S,3R)-3-(hydroxymethyl)-5-[cis-2-(1-hydroxy-1-methyl-ethyl)cyclopropyl]-1-methyl-3,4-dihydro-1H-isoquinolin-2-yl]ethenone]", "values": [
      {"measurement": "EC50", "value": 11.2, "unit": "nM"},
      {"measurement": "% Top (% Potentiation)", "value": 91.9, "unit": "%"}
    ]},
    {"compound": "C[C@H]1c2cccc([C@@H]3C[C@@H]3C(C)(C)O)c2C[C@H](CO)N1C(=O)Cc1c(Cl)cccc1Cl", "note": "(relative stereo) [Example 4, 2-(2,6-Dichlorophenyl)-1-[(1S,3R)-3-(hydroxymethyl)-5-[cis-2-(1-hydroxy-1-methyl-ethyl)cyclopropyl]-1-methyl-3,4-dihydro-1H-isoquinolin-2-yl]ethenone]", "values": [
      {"measurement": "EC50", "value": 86.7, "unit": "nM"},
      {"measurement": "% Top (% Potentiation)", "value": 93.2, "unit": "%"}
    ]},
    {"compound": "C[C@@H]1c2ccc(F)c([C@@H]3C[C@H]3C(C)(C)O)c2C[C@H](CO)N1C(=O)Cc1c(F)cccc1Cl", "note": "(relative stereo) [Example 8, 2-(2-chloro-6-fluoro-phenyl)-1-[(1R,3R)-6-fluoro-3-(hydroxymethyl)-5-[trans-2-(1-hydroxy-1-methyl-ethyl)cyclopropyl]-1-methyl-3,4-dihydro-1H-isoquinolin-2-yl]ethenone]", "values": [
      {"measurement": "EC50", "value": 33.6, "unit": "nM"},
      {"measurement": "% Top (% Potentiation)", "value": 78.9, "unit": "%"}
    ]},
    {"compound": "C[C@@H]1c2ccc(F)c([C@@H]3C[C@H]3C(C)(C)O)c2C[C@H](CO)N1C(=O)Cc1c(F)cccc1Cl", "note": "(relative stereo) [Example 9, 2-(2-chloro-6-fluoro-phenyl)-1-[(1R,3R)-6-fluoro-3-(hydroxymethyl)-5-[trans-2-(1-hydroxy-1-methyl-ethyl)cyclopropyl]-1-methyl-3,4-dihydro-1H-isoquinolin-2-yl]ethenone]", "values": [
      {"measurement": "EC50", "value": 13.2, "unit": "nM"},
      {"measurement": "% Top (% Potentiation)", "value": 82.0, "unit": "%"}
    ]},
    {"compound": "C[C@H]1c2cccc([C@@H]3C[C@H]3C(C)(C)O)c2C[C@H](CO)N1C(=O)Cc1c(Cl)cccc1Cl", "note": "(relative stereo) [Example 1, 2-(2,6-Dichlorophenyl)-1-[(1S,3R)-3-(hydroxymethyl)-5-[trans-2-(1-hydroxy-1-methyl-ethyl)cyclopropyl]-1-methyl-3,4-dihydro-1H-isoquinolin-2-yl]ethenone]", "values": [
      {"measurement": "EC50", "value": 12.1, "unit": "nM"},
      {"measurement": "% Top (% Potentiation)", "value": 94.2, "unit": "%"}
    ]},
    {"compound": "C[C@H]1c2ccc(F)c([C@@H]3C[C@H]3C(C)(C)O)c2C[C@H](CO)N1C(=O)Cc1c(Cl)cccc1Cl", "note": "(relative stereo) [Example 11, 2-(2,6-dichlorophenyl)-1-[(1S,3R)-6-fluoro-3-(hydroxymethyl)-5-[trans-(1-hydroxy-1-methyl-ethyl)cyclopropyl]-1-methyl-3,4-dihydro-1H-isoquinolin-2-yl]ethenone]", "values": [
      {"measurement": "EC50", "value": 5.19, "unit": "nM"},
      {"measurement": "% Top (% Potentiation)", "value": 92.7, "unit": "%"}
    ]},
    {"compound": "C[C@H]1c2cccc([C@@H]3C[C@H]3C(C)(C)O)c2C[C@H](CO)N1C(=O)Cc1c(Cl)cccc1Cl", "note": "(relative stereo) [Example 2, 2-(2,6-Dichlorophenyl)-1-[(1S,3R)-3-(hydroxymethyl)-5-[trans-2-(1-hydroxy-1-methyl-ethyl)cyclopropyl]-1-methyl-3,4-dihydro-1H-isoquinolin-2-yl]ethenone]", "values": [
      {"measurement": "EC50", "value": 8.28, "unit": "nM"},
      {"measurement": "% Top (% Potentiation)", "value": 96.4, "unit": "%"}
    ]},
    {"compound": "C[C@H]1c2ccc(F)c([C@@H]3C[C@H]3C(C)(C)O)c2C[C@H](CO)N1C(=O)Cc1c(Cl)cccc1Cl", "note": "(relative stereo) [Example 10, 2-(2,6-dichlorophenyl)-1-[(1S,3R)-6-fluoro-3-(hydroxymethyl)-5-[trans-(1-hydroxy-1-methyl-ethyl)cyclopropyl]-1-methyl-3,4-dihydro-1H-isoquinolin-2-yl]ethenone]", "values": [
      {"measurement": "EC50", "value": 12.3, "unit": "nM"},
      {"measurement": "% Top (% Potentiation)", "value": 86.9, "unit": "%"}
    ]},
    {"compound": "2-(2,6-Dichlorophenyl)-1-[(1S,3R)-5-[4,4-difluoro-3-hydroxy-3-methyl-butyl]-3-(hydroxymethyl)-1-methyl-3,4-dihydro-1H-isoquinolin-2-yl]ethenone [Example 5]", "values": [
      {"measurement": "EC50", "value": 7.96, "unit": "nM"},
      {"measurement": "% Top (% Potentiation)", "value": 101, "unit": "%"}
    ]}
  ]
}
